{"source": "paper PMC7313537", "about": "(PLoS ONE, 2020)", "key": {"BRAF": {"biological_target": "BRAF (Homo sapiens, UniProt P15056)", "assay": "Enzyme selectivity panel", "format": "biochemical", "details": "1 mM ATP", "method": "(§2) The kinase assays were carried out at room temperature in HEPES 50 mM, pH 7.0, NaN3 0.02%, BSA 0.01%, Orthovanadate 0.1 mM, DTT 1 mM, MgCl2 10 mM in a final volume of 10 µL. Test compounds were transferred to the plate wells by ECHO liquid handler (Labcyte, San Jose, CA) with 0.5% dimethyl sulfoxide (DMSO) in the final assay. Peptide/kinase mixtures were diluted in the appropriate enzymatic buffer and 5µL of the mixture was added to a 384-well small volume black plate. Reactions were initiated by the addition of 5 µL ATP in reaction buffer, the final reaction mixture consisted of 500 nM peptide substrate, 1 mM ATP, and appropriate amount of specific kinase. […] The plates were then sealed and centrifuged at 1800 rpm for 2 minutes. […] Half maximal inhibitory concentration (IC50) determination was performed by fitting the curve of percent control activity versus the log of the compound concentration using the GraphPad Prism 6.0 software."}, "CAMK2D": {"biological_target": "CAMK2D (Homo sapiens, UniProt Q13557)", "sequence (Q13557 whole entry, species assumed)": "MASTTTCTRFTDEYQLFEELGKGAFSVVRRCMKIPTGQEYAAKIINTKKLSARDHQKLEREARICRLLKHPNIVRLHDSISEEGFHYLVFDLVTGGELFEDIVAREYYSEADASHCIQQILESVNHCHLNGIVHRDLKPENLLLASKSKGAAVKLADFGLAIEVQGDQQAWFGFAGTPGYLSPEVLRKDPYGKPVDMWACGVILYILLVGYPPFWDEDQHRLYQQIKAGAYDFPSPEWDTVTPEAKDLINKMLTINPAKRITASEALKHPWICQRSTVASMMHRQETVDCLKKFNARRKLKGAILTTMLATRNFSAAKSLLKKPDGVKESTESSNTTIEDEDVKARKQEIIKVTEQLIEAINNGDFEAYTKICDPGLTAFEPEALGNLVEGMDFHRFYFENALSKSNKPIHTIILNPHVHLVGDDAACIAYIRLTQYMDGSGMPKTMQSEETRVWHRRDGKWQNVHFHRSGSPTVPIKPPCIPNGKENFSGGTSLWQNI", "assay": "Enzyme selectivity panel", "format": "biochemical", "details": "1 mM ATP", "method": "as §2"}, "CDK2": {"biological_target": "CDK2 (Homo sapiens, UniProt P24941)", "assay": "Enzyme selectivity panel", "format": "biochemical", "details": "1 mM ATP", "method": "as §2"}, "DDR2": {"biological_target": "T1, DDR2 (Homo sapiens, UniProt Q16832)", "T1 construct": "purchased In-house HTRF panel (56 kinases) and PerkinElmer (161-kinase panel)", "assay": "Enzyme selectivity panel", "format": "biochemical", "details": "1 mM ATP", "method": "as §2"}, "EGFR": {"biological_target": "EGFR (Homo sapiens, UniProt P00533)", "assay": "Enzyme selectivity panel", "format": "biochemical", "details": "1 mM ATP", "method": "as §2"}, "ERBB4": {"biological_target": "ERBB4 (Homo sapiens, UniProt Q15303)", "assay": "Enzyme selectivity panel", "format": "biochemical", "details": "1 mM ATP", "method": "as §2"}, "JNK1": {"biological_target": "JNK1 (Homo sapiens, UniProt P45983)", "sequence (P45983 whole entry, species assumed)": "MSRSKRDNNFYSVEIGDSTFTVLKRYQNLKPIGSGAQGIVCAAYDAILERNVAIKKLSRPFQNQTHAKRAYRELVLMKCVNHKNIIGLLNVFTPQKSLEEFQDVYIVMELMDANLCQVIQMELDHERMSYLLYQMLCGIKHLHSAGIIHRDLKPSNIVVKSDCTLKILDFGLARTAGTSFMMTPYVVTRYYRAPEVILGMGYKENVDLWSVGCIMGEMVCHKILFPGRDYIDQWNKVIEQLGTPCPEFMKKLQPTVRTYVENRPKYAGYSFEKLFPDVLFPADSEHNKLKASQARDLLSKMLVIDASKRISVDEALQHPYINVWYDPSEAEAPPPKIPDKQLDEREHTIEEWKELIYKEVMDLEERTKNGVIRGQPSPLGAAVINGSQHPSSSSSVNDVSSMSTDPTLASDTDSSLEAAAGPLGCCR", "assay": "Enzyme selectivity panel", "format": "biochemical", "details": "1 mM ATP", "method": "as §2"}, "MAP3K8": {"biological_target": "MAP3K8 (Homo sapiens, UniProt P41279)", "sequence (P41279 whole entry, species assumed)": "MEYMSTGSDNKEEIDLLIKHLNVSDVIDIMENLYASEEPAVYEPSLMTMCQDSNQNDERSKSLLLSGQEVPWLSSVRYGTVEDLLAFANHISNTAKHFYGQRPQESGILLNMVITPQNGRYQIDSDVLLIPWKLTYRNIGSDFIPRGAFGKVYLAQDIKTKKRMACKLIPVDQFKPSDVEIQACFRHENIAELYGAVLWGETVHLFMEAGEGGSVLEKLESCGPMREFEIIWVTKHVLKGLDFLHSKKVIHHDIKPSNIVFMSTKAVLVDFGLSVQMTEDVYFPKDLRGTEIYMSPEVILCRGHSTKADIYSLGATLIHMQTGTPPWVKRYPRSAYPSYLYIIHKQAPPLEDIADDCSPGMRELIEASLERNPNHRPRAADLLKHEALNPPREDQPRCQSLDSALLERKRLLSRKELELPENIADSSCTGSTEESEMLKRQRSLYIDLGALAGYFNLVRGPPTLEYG", "assay": "Enzyme selectivity panel", "format": "biochemical", "details": "1 mM ATP", "method": "as §2"}, "PAK4": {"biological_target": "PAK4 (Homo sapiens, UniProt O96013)", "sequence (O96013 whole entry, species assumed)": "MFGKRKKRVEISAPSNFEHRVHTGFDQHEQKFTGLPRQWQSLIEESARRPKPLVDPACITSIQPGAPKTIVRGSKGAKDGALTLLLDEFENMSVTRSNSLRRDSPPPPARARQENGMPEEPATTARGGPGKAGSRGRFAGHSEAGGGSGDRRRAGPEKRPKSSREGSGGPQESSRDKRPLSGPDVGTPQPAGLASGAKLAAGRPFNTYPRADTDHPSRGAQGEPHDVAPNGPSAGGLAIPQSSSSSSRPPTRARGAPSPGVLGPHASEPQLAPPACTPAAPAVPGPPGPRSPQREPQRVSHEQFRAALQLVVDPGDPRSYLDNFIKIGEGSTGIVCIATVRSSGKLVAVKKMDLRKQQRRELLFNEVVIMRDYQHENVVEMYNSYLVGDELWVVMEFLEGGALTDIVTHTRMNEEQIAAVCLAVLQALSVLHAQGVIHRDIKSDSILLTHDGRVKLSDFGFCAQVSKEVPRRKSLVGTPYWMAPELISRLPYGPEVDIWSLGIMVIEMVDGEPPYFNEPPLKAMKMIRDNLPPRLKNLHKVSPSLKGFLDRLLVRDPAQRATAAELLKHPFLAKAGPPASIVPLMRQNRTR", "assay": "Enzyme selectivity panel", "format": "biochemical", "details": "1 mM ATP", "method": "as §2"}, "PHKG2": {"biological_target": "T2, PHKG2 (Homo sapiens, UniProt P15735)", "T2 construct": "purchased In-house HTRF panel (56 kinases) and PerkinElmer (161-kinase panel)", "T2 sequence (P15735 whole entry, species assumed)": "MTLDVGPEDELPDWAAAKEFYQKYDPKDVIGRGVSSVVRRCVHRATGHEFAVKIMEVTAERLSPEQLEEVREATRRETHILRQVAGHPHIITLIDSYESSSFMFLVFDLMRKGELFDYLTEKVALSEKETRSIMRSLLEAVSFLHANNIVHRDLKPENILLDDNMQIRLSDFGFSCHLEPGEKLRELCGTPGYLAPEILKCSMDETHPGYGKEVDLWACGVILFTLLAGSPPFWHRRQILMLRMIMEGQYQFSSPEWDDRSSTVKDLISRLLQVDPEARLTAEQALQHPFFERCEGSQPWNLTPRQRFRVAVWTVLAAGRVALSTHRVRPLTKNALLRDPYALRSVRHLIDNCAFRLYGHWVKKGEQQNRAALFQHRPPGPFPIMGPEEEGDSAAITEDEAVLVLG", "assay": "Enzyme selectivity panel", "format": "biochemical", "details": "1 mM ATP", "method": "as §2"}, "PIM2": {"biological_target": "T3, PIM2 (Homo sapiens, UniProt Q9P1W9)", "T3 construct": "purchased In-house HTRF panel (56 kinases) and PerkinElmer (161-kinase panel)", "T3 sequence (Q9P1W9 whole entry, species assumed)": "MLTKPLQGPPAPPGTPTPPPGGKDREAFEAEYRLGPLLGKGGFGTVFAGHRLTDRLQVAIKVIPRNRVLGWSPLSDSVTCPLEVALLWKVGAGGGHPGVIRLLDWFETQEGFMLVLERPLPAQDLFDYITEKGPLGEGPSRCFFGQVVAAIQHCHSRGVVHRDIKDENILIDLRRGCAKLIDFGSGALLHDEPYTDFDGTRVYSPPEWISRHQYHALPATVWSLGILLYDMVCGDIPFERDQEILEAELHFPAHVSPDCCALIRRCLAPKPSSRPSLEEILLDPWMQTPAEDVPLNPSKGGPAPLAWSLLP", "assay": "Enzyme selectivity panel", "format": "biochemical", "details": "1 mM ATP", "method": "as §2"}, "ROCK1": {"biological_target": "ROCK1 (Homo sapiens, UniProt Q13464)", "assay": "Enzyme selectivity panel", "format": "biochemical", "details": "1 mM ATP", "method": "as §2"}, "RSK2": {"biological_target": "RSK2 (Homo sapiens, UniProt P51812)", "sequence (P51812 whole entry, species assumed)": "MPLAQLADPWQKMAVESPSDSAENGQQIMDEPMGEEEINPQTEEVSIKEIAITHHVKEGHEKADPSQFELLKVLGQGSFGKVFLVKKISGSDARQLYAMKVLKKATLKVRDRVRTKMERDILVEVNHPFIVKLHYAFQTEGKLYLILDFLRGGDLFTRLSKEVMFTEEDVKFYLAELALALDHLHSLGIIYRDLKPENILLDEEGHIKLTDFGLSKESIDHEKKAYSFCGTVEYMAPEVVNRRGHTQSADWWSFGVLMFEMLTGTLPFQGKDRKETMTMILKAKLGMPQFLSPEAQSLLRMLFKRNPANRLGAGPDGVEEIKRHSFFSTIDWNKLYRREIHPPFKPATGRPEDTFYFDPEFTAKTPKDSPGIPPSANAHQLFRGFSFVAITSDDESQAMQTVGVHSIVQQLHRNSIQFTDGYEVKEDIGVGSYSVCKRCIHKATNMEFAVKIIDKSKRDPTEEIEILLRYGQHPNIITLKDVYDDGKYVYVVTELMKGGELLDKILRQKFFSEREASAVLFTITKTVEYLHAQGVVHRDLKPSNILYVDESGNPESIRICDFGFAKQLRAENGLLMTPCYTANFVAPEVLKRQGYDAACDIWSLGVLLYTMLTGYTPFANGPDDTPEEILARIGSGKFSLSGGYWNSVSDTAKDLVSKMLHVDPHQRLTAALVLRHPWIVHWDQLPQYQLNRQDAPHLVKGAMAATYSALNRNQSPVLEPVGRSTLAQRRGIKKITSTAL", "assay": "Enzyme selectivity panel", "format": "biochemical", "details": "1 mM ATP", "method": "as §2"}, "SGK1": {"biological_target": "T4, SGK1 (Homo sapiens, UniProt O00141)", "T4 construct": "purchased In-house HTRF panel (56 kinases) and PerkinElmer (161-kinase panel)", "assay": "Enzyme selectivity panel", "format": "biochemical", "details": "1 mM ATP", "method": "as §2"}, "STK4": {"biological_target": "STK4 (Homo sapiens, UniProt Q13043)", "sequence (Q13043 whole entry, species assumed)": "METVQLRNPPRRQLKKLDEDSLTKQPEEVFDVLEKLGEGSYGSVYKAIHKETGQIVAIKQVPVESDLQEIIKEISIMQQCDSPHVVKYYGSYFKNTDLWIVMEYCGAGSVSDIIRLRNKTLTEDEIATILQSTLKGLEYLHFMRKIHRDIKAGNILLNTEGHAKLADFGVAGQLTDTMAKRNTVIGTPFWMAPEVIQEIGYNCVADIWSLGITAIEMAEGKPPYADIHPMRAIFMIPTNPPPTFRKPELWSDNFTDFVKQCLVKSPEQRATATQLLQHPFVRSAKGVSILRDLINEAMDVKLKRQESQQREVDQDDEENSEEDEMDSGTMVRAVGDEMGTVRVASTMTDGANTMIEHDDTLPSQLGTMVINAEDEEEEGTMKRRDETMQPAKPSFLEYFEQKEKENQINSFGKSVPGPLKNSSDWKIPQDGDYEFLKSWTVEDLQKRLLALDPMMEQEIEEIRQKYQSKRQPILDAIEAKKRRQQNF", "assay": "Enzyme selectivity panel", "format": "biochemical", "details": "1 mM ATP", "method": "as §2"}, "TIE2": {"biological_target": "TIE2 (Homo sapiens, UniProt Q02763)", "assay": "Enzyme selectivity panel", "format": "biochemical", "details": "1 mM ATP", "method": "as §2"}, "[1]": {"tested_on": "phospho-FRS2 and phospho-ERK in RT-4 cells (FGFR3-TACC3)", "assay": "Western blot of FGFR pathway markers", "format": "cell-based", "details": "2 hours", "excerpt": "All antibodies were purchased from commercial sources as follows: antibodies against FGFR1 (monoclonal [rabbit], catalogue no. 9740, Antibody Registry Identifier AB_11178519), ERK (monoclonal [mouse], 9107, AB_10695739), phospho-p42/44 ERK1/2 (monoclonal [rabbit], 4370, AB_2315112), phospho-STAT5 (Tyr694; monoclonal [rabbit], 4322, AB_10544692), and STAT5 (monoclonal [rabbit], 9358, AB_659905) were from Cell Signaling Technologies (Danvers, MA) and used at 1:1000 dilution; FGFR3 (monoclonal [rabbit], AB133644, AB_2810262) and FRS2 (polyclonal [rabbit], AB10425, AB_2247176) were from Abcam (Cambridge, UK) and used at 1:2000; and phospho-FRS2 (Tyr436; polyclonal [rabbit], AF5126, AB_2106234) was from R&D Systems (Minneapolis, MN) and used at 1 μg/mL. The pFGFR2 enzyme-linked immunosorbent assay (ELISA) kit was purchased from R&D Systems and ELISA was performed per manufacturer protocol.\nOriginal Western blot images are shown in S1 File (S1 Raw images)."}, "RT-112 (bladder cancer)": {"tested_on": "RT-112 (bladder cancer)", "assay": "Cell viability assay (CellTiter-Glo)", "format": "cell-based", "details": "Homo sapiens, FGFR3-TACC3 fusion, 72 hours, read-out: Mean GI50 ± S.D."}, "[2]": {"assay": "Plasma protein binding (equilibrium dialysis)", "format": "in vitro ADME", "details": "read-out: PPB (% free)", "procedure": "The final DMSO content in all cases was <0.1%. Each condition was incubated in duplicate. For protein binding determination, the Multi-Equilibrium Dialyzer System™ and diachema membranes from Harvard Apparatus (Holliston, MA) were utilized. Equilibrium dialysis was carried out in Teflon cells separated by a dialysis membrane with a molecular weight cutoff of 10,000 Daltons. […] The cells were rotated at a speed of 12 rpm in a 37°C water bath for 2 hours. Following the incubation period, buffer and serum/plasma samples were drained separately into empty preweighed glass test tubes. The tubes were reweighed, and the exact volume of sample recovered from each side of the dialysis cell was calculated using the mass. A 75-μL aliquot of each sample (buffer or serum/plasma) was added to a 96-well plate containing a protein precipitation solution of 100% methanol and 0.2 μM dextrorphan as the internal standard; 75 μL of blank buffer or plasma/serum was added to the plate to ensure identical composition across all samples. Prior to analysis, samples prepared in the 96-well plate were vigorously vortexed for approximately 5 minutes and centrifuged for 10 minutes at ~1700 × g to remove denatured proteins and particulate matter. The supernatant was transferred and analyzed using LC-MS/MS."}, "CYP1A2": {"biological_target": "T5, CYP1A2 (Homo sapiens, UniProt P05177)", "T5 construct": "from tissue; host or cells: human liver microsomes", "T5 sequence (P05177 whole entry)": "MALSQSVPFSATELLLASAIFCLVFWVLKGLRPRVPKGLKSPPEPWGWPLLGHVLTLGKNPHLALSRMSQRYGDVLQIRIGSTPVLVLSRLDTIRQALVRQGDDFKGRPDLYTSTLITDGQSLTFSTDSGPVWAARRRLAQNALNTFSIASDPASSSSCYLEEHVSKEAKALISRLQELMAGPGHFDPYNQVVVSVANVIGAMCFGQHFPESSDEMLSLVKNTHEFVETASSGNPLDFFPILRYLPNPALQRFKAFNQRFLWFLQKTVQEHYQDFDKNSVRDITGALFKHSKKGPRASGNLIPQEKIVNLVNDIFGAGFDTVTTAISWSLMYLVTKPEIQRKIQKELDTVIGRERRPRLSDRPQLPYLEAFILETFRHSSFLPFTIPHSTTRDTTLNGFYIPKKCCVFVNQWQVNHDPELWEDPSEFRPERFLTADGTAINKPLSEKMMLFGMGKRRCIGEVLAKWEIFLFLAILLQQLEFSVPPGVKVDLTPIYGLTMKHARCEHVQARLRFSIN", "assay": "CYP inhibition", "format": "in vitro ADME", "details": "human liver microsomes", "procedure": "(§1) In addition, the known selective inhibitors of CYP1A2 (α-naphthoflavone), CYP2B6 (ticlopidine), CYP2C8 (quercetin), CYP2C9 (sulfaphenazole), CYP2C19 (tranylcypromine), CYP2D6 (quinidine), and CYP3A4 (ketoconazole) were included as positive controls. […] Samples were vortexed and centrifuged, and the resulting supernatants were analyzed using LC-MS/MS."}, "CYP2B6": {"biological_target": "T6, CYP2B6 (Homo sapiens, UniProt P20813)", "T6 construct": "from tissue; host or cells: human liver microsomes", "assay": "CYP inhibition", "format": "in vitro ADME", "details": "human liver microsomes", "procedure": "as §1"}, "CYP2C19": {"biological_target": "T7, CYP2C19 (Homo sapiens, UniProt P33261)", "T7 construct": "from tissue; host or cells: human liver microsomes", "assay": "CYP inhibition", "format": "in vitro ADME", "details": "human liver microsomes", "procedure": "as §1"}, "CYP2C8": {"biological_target": "T8, CYP2C8 (Homo sapiens, UniProt P10632)", "T8 construct": "from tissue; host or cells: human liver microsomes", "T8 sequence (P10632 whole entry)": "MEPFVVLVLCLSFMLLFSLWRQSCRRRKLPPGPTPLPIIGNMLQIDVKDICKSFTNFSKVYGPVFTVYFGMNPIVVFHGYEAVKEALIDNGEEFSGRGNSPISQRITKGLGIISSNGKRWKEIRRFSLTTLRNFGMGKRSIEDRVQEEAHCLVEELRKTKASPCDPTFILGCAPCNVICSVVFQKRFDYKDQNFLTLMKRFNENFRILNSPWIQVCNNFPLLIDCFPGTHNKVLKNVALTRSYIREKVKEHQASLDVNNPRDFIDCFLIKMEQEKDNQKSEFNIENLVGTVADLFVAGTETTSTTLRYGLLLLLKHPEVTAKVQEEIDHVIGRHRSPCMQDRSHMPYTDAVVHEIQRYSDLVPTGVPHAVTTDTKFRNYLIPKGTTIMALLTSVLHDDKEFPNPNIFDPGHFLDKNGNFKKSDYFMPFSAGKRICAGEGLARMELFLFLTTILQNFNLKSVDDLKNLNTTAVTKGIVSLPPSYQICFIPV", "assay": "CYP inhibition", "format": "in vitro ADME", "details": "human liver microsomes", "procedure": "as §1"}, "CYP2C9": {"biological_target": "T9, CYP2C9 (Homo sapiens, UniProt P11712)", "T9 construct": "from tissue; host or cells: human liver microsomes", "assay": "CYP inhibition", "format": "in vitro ADME", "details": "human liver microsomes", "procedure": "as §1"}, "CYP2D6": {"biological_target": "T10, CYP2D6 (Homo sapiens, UniProt P10635)", "T10 construct": "from tissue; host or cells: human liver microsomes", "assay": "CYP inhibition", "format": "in vitro ADME", "details": "human liver microsomes", "procedure": "as §1"}, "CYP3A4": {"biological_target": "T11, CYP3A4 (Homo sapiens, UniProt P08684)", "T11 construct": "from tissue; host or cells: human liver microsomes", "assay": "CYP inhibition", "format": "in vitro ADME", "details": "human liver microsomes", "procedure": "as §1"}, "[3]": {"assay": "Preclinical safety studies", "format": "in vivo"}}, "note": "Like-named read-outs stand apart in the source and are kept apart here.", "data": [{"molecule": "CCN1C(=O)N(c2c(F)c(OC)cc(OC)c2F)Cc2cnc3[nH]c(CN4CCOCC4)cc3c21", "note": "[INCB054828, pemigatinib]", "values": [{"measurement": "IC50", "setting": "BRAF", "value": "> 10", "unit": "µM"}, {"measurement": "IC50", "setting": "CAMK2D", "value": "> 10", "unit": "µM"}, {"measurement": "IC50", "setting": "CDK2", "value": "> 10", "unit": "µM"}, {"measurement": "IC50", "setting": "DDR2", "value": "> 10", "unit": "µM"}, {"measurement": "IC50", "setting": "EGFR", "value": "> 10", "unit": "µM"}, {"measurement": "IC50", "setting": "ERBB4", "value": "> 10", "unit": "µM"}, {"measurement": "IC50", "setting": "JNK1", "value": "> 10", "unit": "µM"}, {"measurement": "IC50", "setting": "MAP3K8", "value": "> 10", "unit": "µM"}, {"measurement": "IC50", "setting": "PAK4", "value": "> 10", "unit": "µM"}, {"measurement": "IC50", "setting": "PHKG2", "value": "> 10", "unit": "µM"}, {"measurement": "IC50", "setting": "PIM2", "value": "> 10", "unit": "µM"}, {"measurement": "IC50", "setting": "ROCK1", "value": "> 10", "unit": "µM"}, {"measurement": "IC50", "setting": "RSK2", "value": "> 10", "unit": "µM"}, {"measurement": "IC50", "setting": "SGK1", "value": "> 10", "unit": "µM"}, {"measurement": "IC50", "setting": "STK4", "value": "> 10", "unit": "µM"}, {"measurement": "IC50", "setting": "TIE2", "value": "> 10", "unit": "µM"}, {"measurement": "levels of phospho-FRS2 and phospho-ERK", "setting": "[1]", "value": "strongly suppresses"}, {"measurement": "GI50", "setting": "RT-112 (bladder cancer)", "value": "0.007 ± 0.003", "unit": "µM"}, {"measurement": "fraction unbound at 2 h, 1 μM", "setting": "[2]; Sprague Dawley, pH 7.4, rat plasma", "value": 0.03}, {"measurement": "fraction unbound at 2 h, 1 μM", "setting": "[2]; pH 7.4, human plasma", "value": 0.113}, {"measurement": "IC50", "setting": "CYP1A2", "value": "> 25", "unit": "µM"}, {"measurement": "IC50", "setting": "CYP2B6", "value": "> 25", "unit": "µM"}, {"measurement": "IC50", "setting": "CYP2C19", "value": "> 25", "unit": "µM"}, {"measurement": "IC50", "setting": "CYP2C8", "value": "> 25", "unit": "µM"}, {"measurement": "IC50", "setting": "CYP2C9", "value": "> 25", "unit": "µM"}, {"measurement": "IC50", "setting": "CYP2D6", "value": "> 25", "unit": "µM"}, {"measurement": "IC50", "setting": "CYP3A4", "value": "> 25", "unit": "µM"}, {"measurement": "liver toxicity and changes in blood pressure", "setting": "[3]", "value": "not observed"}]}]}
